# In PMC8081663, “A biosensor for the direct visualization of auxin” (Nature, 2021):
# Tests used:
# Assay in all cases: ITC, one-site model
# Type in all cases: binding
# TrpR [1] = target: T1, TrpR (Escherichia coli, UniProt P0A881, S88Y)
# T1 construct: TrpR without fluorescent proteins, pET21b(+), expressed in E. coli BL21(DE3), NiIMAC and Superdex S75; homodimer; template Trp-CTY / Trp-CTYT sensors (Addgene 13533, 13534)
# Excerpt: (§1) ITC, one-site model on TrpR
# TrpR [2] = target: T2, TrpR (Escherichia coli, UniProt P0A881, S88Y/T44L/T81M)
# T2 construct: TrpR without fluorescent proteins, pET21b(+), expressed in E. coli BL21(DE3), NiIMAC and Superdex S75; homodimer; template Trp-CTY / Trp-CTYT sensors (Addgene 13533, 13534)
# Excerpt: as §1
# TrpR [3] = target: T3, TrpR (Escherichia coli, UniProt P0A881, S88Y/T44L)
# T3 construct: TrpR without fluorescent proteins, pET21b(+), expressed in E. coli BL21(DE3), NiIMAC and Superdex S75; homodimer; template Trp-CTY / Trp-CTYT sensors (Addgene 13533, 13534)
# Excerpt: as §1
# TrpR [4] = target: T4, TrpR (Escherichia coli, UniProt P0A881, N87G/S88Y/T44L/T81M)
# T4 construct: TrpR without fluorescent proteins, pET21b(+), expressed in E. coli BL21(DE3), NiIMAC and Superdex S75; homodimer; template Trp-CTY / Trp-CTYT sensors (Addgene 13533, 13534)
# Excerpt: as §1
# TrpR [5] = target: T5, TrpR (Escherichia coli, UniProt P0A881)
# T5 construct: TrpR without fluorescent proteins, pET21b(+), expressed in E. coli BL21(DE3), NiIMAC and Superdex S75; homodimer; template Trp-CTY / Trp-CTYT sensors (Addgene 13533, 13534)
# Excerpt: as §1
# TrpR [6] = target: T6, TrpR (Escherichia coli, UniProt P0A881, M42F/N87G/S88Y/T44L/T81M)
# T6 construct: TrpR without fluorescent proteins, pET21b(+), expressed in E. coli BL21(DE3), NiIMAC and Superdex S75; homodimer; template Trp-CTY / Trp-CTYT sensors (Addgene 13533, 13534)
# Excerpt: as §1
Compound,Kd (TrpR [1]) [µM],Kd (TrpR [2]) [µM],Kd (TrpR [3]) [µM],Kd (TrpR [4]) [µM],Kd (TrpR [5]) [µM],Kd (TrpR [6]) [µM]
O=C(O)Cc1c[nH]c2ccccc12 [IAA],14.6 ± 0.1,3 ± 0.1,7.8 ± 0.3,1.6,137.4 ± 0.5,1.5 ± 0.1
N[C@@H](Cc1c[nH]c2ccccc12)C(=O)O [TRP],–,–,–,–,25 ± 0.7,–
N#CCc1c[nH]c2ccccc12 [IAN],17.9 ± 0.6,33.6 ± 0.2,19.5 ± 0.6,46.4 ± 1.7,63.7 ± 1.7,14.3 ± 0.4
